Experimental data: US20210355103A1, “PARG INHIBITORS AND METHOD OF USE THEREOF” (City of Hope, priority 2018, published 2021)

Columns and labels:
[1] = molecular target: T1, PARG (Homo sapiens, UniProt Q86W56); assay: PAR digestion assay (dot blotting) for PARG inhibition; format: biochemical; conditions: 0.25 nM PARG incubated with 10 μM PAR for 20 min at room temperature; dot blotting with anti-PAR antibody
T1 construct: made in house; host or cells: Sf9 insect cells
Experimental: Compounds (FIG. 4) were synthesized to examine the efficacy of PARG inhibition by dot blotting assay (Example 5). 0.25 nM PARG was incubated with 10 μM PAR for 20 min at room temperature with or without inhibitors. PAR-digestion results were analyzed using dot blotting with anti-PAR antibody.
The array includes compounds in FIG. 4 (PG002 (“002”), PG006 (“006”), PG008 (“008”), PG010 (“010”), and PG021(“021”)), PC (positive control, PAR only), NC (negative control, no inhibitor), and COH34 (“34”, positive control for PARG inhibition). In FIG. 5A, 0.3X means 3-fold dilution.
Recombinant PARG protein from Sf9 cells were incubated with PAR purified from FhCh-treated PARG-knock down HCT116 cells (10 μM, calculated as the ADP-ribose unit) and DMSO (Negative control, NC) or small molecules for 20 minutes at room temperature. Positive control (PC) only contains PAR in PBS. Samples (1 μl) were spotted onto a nitrocellulose membrane. Then, the membrane was backed for 30 minutes at 60° C. and blocked with TBST buffer (0.15 M NaCl, 0.01 M Tris-HCl at pH 7.4, 0.1% Tween 20) supplemented with 5% milk for 30 minutes at room temperature. After washing with TBST, the membrane was incubated with monoclonal PAR antibody (Trevigen, Inc.) overnight at 4° C. Following standard Western blotting method, the signals were visualized by chemiluminescent detection (FIG. 5B).

[2] = tested on: HCC1937 (BRCA1-mutant breast cancer cells); assay: Colony formation (cell viability) assay in HCC1937 cells; format: cell-based; conditions: HCC1937, 1 μM PARG inhibitor, 14-day culture, colonies >50 cells counted
Experimental: To examine the efficacy of PG compounds in DNA repair-defective cancer cells, colony formation assays were performed using HCC1937 (BRCA1-mutant breast cancer cells) with or without 1 μM PARG inhibitors (PG002, PG006, PG008, and PG010). COH34 was used as a positive control. HCC1937 (˜1000 cells) were seeded into six-well plates and then treated by various doses of PARG inhibitors. After a 14-day culture, the viable cells were fixed by methanol and stained with crystal violet. The number of colonies (>50 cells for each colony) was calculated. The results were summarized in the histograms (FIG. 7).

T1 sequence (Q86W56 whole entry): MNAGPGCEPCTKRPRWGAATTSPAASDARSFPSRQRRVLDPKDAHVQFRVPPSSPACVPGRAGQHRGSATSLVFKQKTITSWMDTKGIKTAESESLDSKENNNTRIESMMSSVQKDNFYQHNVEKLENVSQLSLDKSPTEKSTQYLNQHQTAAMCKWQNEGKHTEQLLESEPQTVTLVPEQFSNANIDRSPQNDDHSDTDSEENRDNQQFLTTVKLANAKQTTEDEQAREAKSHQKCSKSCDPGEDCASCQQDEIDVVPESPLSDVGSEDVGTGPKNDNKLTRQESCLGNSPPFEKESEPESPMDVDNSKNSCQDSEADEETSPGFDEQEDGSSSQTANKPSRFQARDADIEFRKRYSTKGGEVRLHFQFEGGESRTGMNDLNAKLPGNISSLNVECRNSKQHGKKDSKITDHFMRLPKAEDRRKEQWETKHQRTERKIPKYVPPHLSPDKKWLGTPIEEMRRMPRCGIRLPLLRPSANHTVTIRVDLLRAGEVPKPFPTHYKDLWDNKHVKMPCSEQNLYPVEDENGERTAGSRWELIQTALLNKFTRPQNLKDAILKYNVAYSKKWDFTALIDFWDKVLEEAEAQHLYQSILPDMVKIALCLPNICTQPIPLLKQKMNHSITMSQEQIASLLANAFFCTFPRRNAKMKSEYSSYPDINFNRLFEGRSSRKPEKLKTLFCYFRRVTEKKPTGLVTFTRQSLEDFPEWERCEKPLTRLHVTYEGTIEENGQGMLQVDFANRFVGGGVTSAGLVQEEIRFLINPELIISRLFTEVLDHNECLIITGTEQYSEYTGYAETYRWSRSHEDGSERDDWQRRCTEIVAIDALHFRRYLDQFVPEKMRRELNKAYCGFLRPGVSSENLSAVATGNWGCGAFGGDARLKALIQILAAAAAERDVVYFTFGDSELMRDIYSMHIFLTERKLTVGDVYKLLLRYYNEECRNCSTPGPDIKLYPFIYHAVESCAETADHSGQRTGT

## O=S(=O)(N/N=C/c1c(O)ccc2ccccc12)c1ccc(Cl)cn1 [PG021, 5-chloro-N′-[(1E)-(2-hydroxynaphthalen-1-yl)methylidene]pyridine-2-sulfonohydrazide]
[1]
  inhibitory activity for PARG: good inhibitory activity

## O=C(N/N=C/c1c(O)ccc2ccccc12)c1ccc(Cl)cn1 [PG002, 5-chloro-N′-[(1E)-(2-hydroxynaphthalen-1-yl)methylidene]pyridine-2-carbohydrazide]
[1]
  inhibitory activity for PARG: good inhibitory activity
[2]
  death of the tumor cells (colony formation): increased death of the tumor cells

## O=C(N/N=C/c1c(O)ccc2cccnc12)c1ccc(Cl)cc1 [PG010, 4-chloro-N′-[(1E)-(7-hydroxyquinolin-8-yl)methylidene]benzohydrazide]
[1]
  inhibitory activity for PARG: good inhibitory activity
[2]
  death of the tumor cells (colony formation): increased death of the tumor cells

## O=C(N/N=C/c1c(O)cnc2ccccc12)c1ccc(Cl)cc1 [PG008, 4-chloro-N-[(1E)-(3-hydroxyquinolin-4-yl)methylidene]benzohydrazide]
[1]
  inhibitory activity for PARG: good inhibitory activity
[2]
  death of the tumor cells (colony formation): increased death of the tumor cells

## O=C(N/N=C/c1nccc2ccccc12)c1ccc(Cl)cc1 [PG006, 4-chloro-N′-[(1E)-(isoquinolin-1-yl)methylidene]benzohydrazide]
[1]
  inhibitory activity for PARG: good inhibitory activity
[2]
  death of the tumor cells (colony formation): increased death of the tumor cells
